Source: patent US20260209242A1, “CAMPTOTHECIN DERIVATIVE, PHARMACEUTICAL COMPOSITION, AND PREPARATION METHOD AND USE THEREFOR” (priority 2022, published 2026)
≈ marks a conversion by molar mass, not a printed value. Where two headings read alike, the source gives them in different places.

Experiments:
[1] = target: CYP2D6 (Homo sapiens, UniProt P10635); assay: Inhibition on human hepatomicrosomes CYP2D6
[2] = target: T1, CYP1A2 (Homo sapiens, UniProt P05177); assay: Inhibition on human hepatomicrosomes CYP1A2
T1 sequence (P05177 1-516): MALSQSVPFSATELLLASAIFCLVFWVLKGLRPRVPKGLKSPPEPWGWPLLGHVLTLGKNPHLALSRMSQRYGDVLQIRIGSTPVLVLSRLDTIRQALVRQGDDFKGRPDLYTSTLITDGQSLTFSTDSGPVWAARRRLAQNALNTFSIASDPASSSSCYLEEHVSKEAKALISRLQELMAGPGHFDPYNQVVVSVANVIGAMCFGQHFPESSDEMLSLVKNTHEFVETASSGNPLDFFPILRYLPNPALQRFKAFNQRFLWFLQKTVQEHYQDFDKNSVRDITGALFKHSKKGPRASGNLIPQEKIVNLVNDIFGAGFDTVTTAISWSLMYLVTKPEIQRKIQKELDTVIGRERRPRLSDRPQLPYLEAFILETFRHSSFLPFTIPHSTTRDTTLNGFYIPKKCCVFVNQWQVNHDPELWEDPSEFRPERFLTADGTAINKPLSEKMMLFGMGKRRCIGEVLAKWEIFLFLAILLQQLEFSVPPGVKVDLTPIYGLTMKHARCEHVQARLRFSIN

[3] = Kinetic solubility test in PBS 7.4; type: physicochemical; details: for solubility at 2 h: 25 °C, pH 7.4, aqueous buffer, kinetic from dmso stock
Method: 10 mM stock solutions of the test substances 6-2, 11-2, 17-2, Dxd, and the control drugs progesterone and diclofenac were prepared using DMSO respectively.
15 μL of 10 mM stock solution of each of the test substances was added to a corresponding position of a corresponding 96-well plate in a specified sequence. 485 μL of the PBS 7.4 was added to a corresponding vial on a sample plate. The experiment was run in duplicate. Each vial was additionally provided with a stirring rod and was plugged. Then, the sample plate was transferred in a thermostatic mixer, and oscillated at a revolving speed of 1,100 rpm at 25° C. for 2 h. 2 h later, the plug was removed, the stirring rod was attracted away with a large magnet, and then the sample was transferred from the sample plate to the filter plate. Negative pressure was generated using a vacuum pump to filter the sample. 5 μL of filtrate and 5 μL of blank DMSO were transferred to another sample plate, and then 490 μL of internal standard water (acetonitrile:water=1:1) containing the internal standard was added. Depending on peak shapes, a certain proportion of internal standard water may be used to dilute the sample diluent to obtain better peak shapes.
6 μL was transferred from the 10 mM DMSO stock solution plate to a blank plate, and was prepared into a 300 μM standard substance solution with addition of 194 μL of DMSO. 5 μL was transferred from the 300 μM standard substance solution plate to still another blank plate, and then 5 μL of blank buffer and 490 μL of the internal standard water containing the internal standard (acetonitrile:water=1:1) were added until a final concentration of the standard substance solution was 3 μM.
An injection plate was transferred on an injection tray of an autosampler to evaluate the sample by LC/MS analysis.
All calculations were performed using Microsoft Excel.
The sample filtrate was analyzed and quantified by qualitative and quantitative LC/MS of standard substance peaks at known concentrations. The calculation formula for the solubility values of the reference drugs and the test substances are as follows:
[Sample] is the compound concentration, DFSample refers to the sample dilution factor, [STD] is the standard substance concentration of the compound, AREAStd is the standard substance peak area of the compound, and AREASample is the peak area of the compound sample.

[4] = Pharmacokinetic test in SD rats; details: male, Sprague-Dawley (SD), rat, in vivo, iv, 2 mg/kg
Method: After a single intravenous injection (dose: 2 mpk) of the compounds 6-2, 11-2, 17-2, and Dxd into male SD rats (blood collection time points: 0.083 h, 0.25 h, 0.5 h, 1 h, 2 h, 4 h, 8 h, and 24 h after IV administration, totaling 8 blood collection time points), average pharmacokinetic parameters in the plasma are as shown in Table 5: […]

[5] = Stability of compounds in human plasma; type: in vitro ADME; details: for Residual percentage (%) 1 h / Residual percentage (%) 2 h / Residual percentage (%) 6 h / Residual percentage (%) 24 h: 5 μmol/L
Method: • (1) 199 μL of human plasma was added to the culture plate of each cell. The culture plate was preheated to 37° C., and kept at this temperature for 15 min. • (2) After preincubation, 1 μL of 1 mmol/L each test compound and 1 μL of 1 mmol/L control compound were added to 199 μL of plasma, so that a final concentration of each test compound was 5 μmol/L and that of the control compound was 5 gmol/L. The final concentration of the organic solvent was 0.5%. The experiment would be duplicated twice. • (3) Reaction samples were incubated at 37° C. • (4) The reaction was stopped by adding 600 μL of cold methanol containing the internal standard at 0, 1, 2, 6, and 24 h. Each sample was vortex mixed for 10 min, and then centrifuged at 3,220 g for 30 min to precipitate the protein. […] Based on the signal response and peak shapes of liquid chromatography-mass spectrometry (LC-MS), the supernatant would be diluted with ultrapure water.
All calculations were performed using Microsoft Excel. The peak area ratio was determined from the chromatogram of extracted ions. The percentage of compounds remaining at each time point was calculated as per the following formula: […]

[6] = target: T2, CYP3A4 (Homo sapiens, UniProt P08684); assay: Inhibition on human hepatomicrosomes CYP3A4; type: in vitro ADME
T2 construct: from tissue; host or cells: human liver microsomes

[7] = Stability of compounds in human plasma; type: in vitro ADME; details: 5 μmol/L
[8] = read-out: 3A4M (IC50 μM), human hepatomicrosomes, substrate midazolam

T2 sequence (P08684 whole entry): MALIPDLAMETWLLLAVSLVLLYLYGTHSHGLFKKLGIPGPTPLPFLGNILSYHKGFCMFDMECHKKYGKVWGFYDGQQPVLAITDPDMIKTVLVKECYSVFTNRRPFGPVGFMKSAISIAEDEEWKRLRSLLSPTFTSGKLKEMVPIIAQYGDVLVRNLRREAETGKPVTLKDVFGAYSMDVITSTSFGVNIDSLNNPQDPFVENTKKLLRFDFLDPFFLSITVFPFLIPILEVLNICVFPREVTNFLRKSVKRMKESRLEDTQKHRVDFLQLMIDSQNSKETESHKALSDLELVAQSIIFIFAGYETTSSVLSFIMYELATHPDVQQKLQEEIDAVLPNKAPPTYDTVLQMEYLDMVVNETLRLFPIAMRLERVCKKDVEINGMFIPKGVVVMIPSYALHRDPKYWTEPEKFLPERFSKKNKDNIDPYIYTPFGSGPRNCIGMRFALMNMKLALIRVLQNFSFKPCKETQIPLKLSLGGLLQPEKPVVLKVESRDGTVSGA
CYP2D6, sequence (P10635 whole entry): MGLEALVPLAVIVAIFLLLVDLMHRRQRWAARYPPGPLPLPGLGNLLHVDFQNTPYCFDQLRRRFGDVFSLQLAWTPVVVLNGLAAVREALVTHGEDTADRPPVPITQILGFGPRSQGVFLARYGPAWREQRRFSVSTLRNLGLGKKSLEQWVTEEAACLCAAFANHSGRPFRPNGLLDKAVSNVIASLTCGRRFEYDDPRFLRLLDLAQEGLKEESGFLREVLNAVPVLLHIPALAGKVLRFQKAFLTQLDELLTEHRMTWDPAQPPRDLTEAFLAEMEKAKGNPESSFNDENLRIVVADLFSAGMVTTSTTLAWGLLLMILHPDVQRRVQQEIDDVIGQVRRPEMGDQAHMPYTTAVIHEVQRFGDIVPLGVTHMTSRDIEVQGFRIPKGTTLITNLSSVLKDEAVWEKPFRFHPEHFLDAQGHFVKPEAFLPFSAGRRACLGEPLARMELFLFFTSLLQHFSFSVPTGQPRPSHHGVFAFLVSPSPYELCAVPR

SMILES	IC50 [1]	IC50 [2]	solubility at 2 h [3]	AUC(0-inf) [4]	AUC(0-t) [4]	C0 [4]	Vd [4]	clearance [4]	half-life [4]	Residual percentage (%) 1 h [5]	Residual percentage (%) 2 h [5]	Residual percentage (%) 6 h [5]	Residual percentage (%) 24 h [5]	stability in human plasma (in words) [5]	IC50 [6]	IC50 [6, 8]	Residual percentage (%) 4 h [7]	solubility in the PBS 7.4 compared with Dxd (in words) [3]
CC[C@@]1(O)C(=O)OCc2c1cc1n(c2=O)Cc2c-1nc1cc(F)c(C3CC3)c3c1c2C(NC(=O)C[C@@H](C)O)CC3 (single isomer, unassigned) [Compound 17-2]	> 30 µM	> 30 µM	1.7 µM (≈ 0.931 µg/mL)	2730 ng·h/mL	2250 ng·h/mL	2690 ng/mL	1.4 L/kg	12.3 mL/min/kg	98.4 min	90.07%	89.34%	97.06%	102.21%	good stability in human plasma	> 30 µM	> 30 µM	93.75%	–
CC[C@@]1(O)C(=O)OCc2c1cc1n(c2=O)Cc2c-1nc1cc(F)c(C)c3c1c2C(NC(=O)C[C@@H](C)O)CCC3 (single isomer, unassigned) [Compound 6-2]	> 30 µM	> 30 µM	170 µM (≈ 91 µg/mL)	318 ng·h/mL	314 ng·h/mL	677 ng/mL	2.93 L/kg	108 mL/min/kg	23.4 min	96.62%	86.16%	88.99%	87.01%	good stability in human plasma	> 30 µM	> 30 µM	93.65%	significantly better solubility in the PBS 7.4 than Dxd
